Assay results published in ChEMBL document CHEMBL5150007, “Zinc enzymes in medicinal chemistry” (Eur J Med Chem, 2021).
Starred links: 1 amine or outer side, 2 acyl side, 3 side chain; linkers in the order of their positions; H or OH if unused. Residues, ends and D or L forms follow the SMILES beside them. *: point of attachment. CO = O=C([*:1])[*:2]; N(Me)OMe = CON(C)*

Legend:
[1] = Inhibition of farnesyltransferase (unknown origin); parameters: species or system Homo sapiens
[2] = Inhibition of NDM-1 (unknown origin) using imipenem as substrate by spectrophotometric assay; parameters: species or system Homo sapiens
[3] = Inhibition of VIM-2 (unknown origin); parameters: species or system Homo sapiens
[4] = Inhibition of NDM-1 (unknown origin); parameters: species or system Homo sapiens
[5] = target: T1, Lethal factor (Bacillus anthracis, UniProt P15917); test: Binding affinity to Bacillus anthracis lethal factor assessed as inhibition constant
T1 sequence (P15917 whole entry): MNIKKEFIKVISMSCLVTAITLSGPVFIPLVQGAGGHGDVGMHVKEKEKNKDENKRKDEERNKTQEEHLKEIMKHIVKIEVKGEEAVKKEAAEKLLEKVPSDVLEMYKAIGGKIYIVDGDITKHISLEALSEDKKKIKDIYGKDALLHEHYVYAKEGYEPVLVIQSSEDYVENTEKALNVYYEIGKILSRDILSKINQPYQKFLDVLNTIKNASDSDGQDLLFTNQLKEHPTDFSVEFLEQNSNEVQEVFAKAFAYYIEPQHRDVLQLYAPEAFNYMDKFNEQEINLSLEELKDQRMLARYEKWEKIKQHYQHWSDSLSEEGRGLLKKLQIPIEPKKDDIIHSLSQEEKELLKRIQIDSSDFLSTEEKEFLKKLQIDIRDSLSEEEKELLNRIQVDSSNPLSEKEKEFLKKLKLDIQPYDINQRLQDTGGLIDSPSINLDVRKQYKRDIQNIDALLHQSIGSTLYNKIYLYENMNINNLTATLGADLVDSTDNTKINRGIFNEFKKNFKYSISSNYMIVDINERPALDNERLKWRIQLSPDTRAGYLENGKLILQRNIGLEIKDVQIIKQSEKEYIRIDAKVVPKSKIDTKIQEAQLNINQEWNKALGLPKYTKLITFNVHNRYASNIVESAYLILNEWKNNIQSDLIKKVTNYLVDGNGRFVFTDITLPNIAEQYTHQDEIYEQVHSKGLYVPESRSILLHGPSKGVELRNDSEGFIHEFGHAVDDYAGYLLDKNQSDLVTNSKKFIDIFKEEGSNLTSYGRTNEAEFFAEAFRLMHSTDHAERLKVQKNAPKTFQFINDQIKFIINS

[6] = target: Disintegrin and metalloproteinase domain-containing protein 17 (Homo sapiens, UniProt P78536); test: Inhibition of human ADAM17
[7] = target: T2, Disintegrin and metalloproteinase domain-containing protein 10 (Homo sapiens, UniProt O14672); test: Inhibition of human ADAM10 using (biotin-SPLAQAVRSSSRTP(3H)S-NH2) as a substrate by streptavidin-coated scintillation proximity assay
T2 sequence (O14672 whole entry): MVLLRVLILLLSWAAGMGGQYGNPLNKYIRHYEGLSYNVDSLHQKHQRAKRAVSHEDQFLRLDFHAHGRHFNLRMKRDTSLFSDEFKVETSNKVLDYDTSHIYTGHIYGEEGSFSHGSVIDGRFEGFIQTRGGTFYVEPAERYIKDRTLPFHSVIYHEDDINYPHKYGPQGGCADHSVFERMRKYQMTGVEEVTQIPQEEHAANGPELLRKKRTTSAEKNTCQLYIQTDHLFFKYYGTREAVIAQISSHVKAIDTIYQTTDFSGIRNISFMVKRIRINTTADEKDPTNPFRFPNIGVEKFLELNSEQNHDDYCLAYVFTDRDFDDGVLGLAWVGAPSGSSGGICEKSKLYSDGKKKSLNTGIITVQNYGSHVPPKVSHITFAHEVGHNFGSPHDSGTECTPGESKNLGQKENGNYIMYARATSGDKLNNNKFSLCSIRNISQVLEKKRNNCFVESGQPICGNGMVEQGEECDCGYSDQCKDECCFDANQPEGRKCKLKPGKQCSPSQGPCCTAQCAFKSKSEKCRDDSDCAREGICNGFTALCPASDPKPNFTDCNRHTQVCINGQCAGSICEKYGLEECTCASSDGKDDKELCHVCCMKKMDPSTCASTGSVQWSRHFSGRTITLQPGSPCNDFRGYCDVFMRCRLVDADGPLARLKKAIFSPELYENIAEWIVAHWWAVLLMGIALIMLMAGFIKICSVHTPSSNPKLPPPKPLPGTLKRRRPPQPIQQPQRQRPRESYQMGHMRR

[8] = target: T3, Adenosine deaminase (Homo sapiens, UniProt P00813); test: Binding affinity to ADA (unknown origin) assessed as inhibition constant
T3 sequence (P00813 whole entry): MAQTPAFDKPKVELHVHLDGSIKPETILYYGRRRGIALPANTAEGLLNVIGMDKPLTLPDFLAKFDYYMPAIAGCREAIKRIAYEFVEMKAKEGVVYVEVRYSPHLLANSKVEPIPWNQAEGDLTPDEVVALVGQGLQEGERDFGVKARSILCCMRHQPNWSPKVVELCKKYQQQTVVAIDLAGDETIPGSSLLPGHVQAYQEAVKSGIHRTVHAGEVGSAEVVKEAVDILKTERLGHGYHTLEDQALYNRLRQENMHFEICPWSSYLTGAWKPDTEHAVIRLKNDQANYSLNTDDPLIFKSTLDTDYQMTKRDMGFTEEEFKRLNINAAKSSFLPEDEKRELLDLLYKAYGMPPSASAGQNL

[9] = target: T1, Lethal factor; test: Inhibition of Bacillus anthracis lethal factor

Sequence of Disintegrin and metalloproteinase domain-containing protein 17 (P78536 whole entry, the tested form may be a part): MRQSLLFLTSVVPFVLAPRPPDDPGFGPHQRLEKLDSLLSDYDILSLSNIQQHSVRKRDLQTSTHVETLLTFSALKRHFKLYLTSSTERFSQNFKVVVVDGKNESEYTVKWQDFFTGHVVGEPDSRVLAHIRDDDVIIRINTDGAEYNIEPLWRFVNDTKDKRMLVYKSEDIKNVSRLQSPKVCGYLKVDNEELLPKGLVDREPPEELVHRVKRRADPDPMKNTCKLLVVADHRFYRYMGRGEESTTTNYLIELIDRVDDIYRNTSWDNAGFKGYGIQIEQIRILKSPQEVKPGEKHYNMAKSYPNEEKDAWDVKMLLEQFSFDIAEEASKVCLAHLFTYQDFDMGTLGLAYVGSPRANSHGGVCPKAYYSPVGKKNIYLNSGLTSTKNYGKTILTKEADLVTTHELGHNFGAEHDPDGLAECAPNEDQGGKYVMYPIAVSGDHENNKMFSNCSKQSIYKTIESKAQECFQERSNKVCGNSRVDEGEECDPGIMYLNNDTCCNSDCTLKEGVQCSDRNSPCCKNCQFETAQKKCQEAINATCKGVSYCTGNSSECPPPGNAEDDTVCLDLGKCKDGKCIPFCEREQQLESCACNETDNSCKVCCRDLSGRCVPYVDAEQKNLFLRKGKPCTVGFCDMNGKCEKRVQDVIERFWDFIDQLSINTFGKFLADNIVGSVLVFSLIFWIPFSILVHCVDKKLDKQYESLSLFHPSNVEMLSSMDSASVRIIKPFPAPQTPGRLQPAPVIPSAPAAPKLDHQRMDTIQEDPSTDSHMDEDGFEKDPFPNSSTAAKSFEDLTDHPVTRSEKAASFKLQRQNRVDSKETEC

With `CCC(C)[C@@H](CO[C@@H](Cc1ccccc1)C(=O)N[C@@H](CCS(C)(=O)=O)C(=O)O)NC[C@@H](N)CS` (some centres not stated) as the compound, how does the IC50 [1] read?
Its IC50 is 240 nM.

With `C[C@@H](CS)C(=O)N1CCC[C@H]1C(=O)O` as the compound, how does the IC50 [2] read?
The IC50 was 7.9 nM.

For `O=C(O)c1nccn1Cc1ccccc1`, which IC50 [3] is on record?
Its IC50 is 0.45 nM.

What about the IC50 [4] of the same compound?
The IC50 was 66700 nM.

For `N[C@@H](CN[C@@H](CN[C@@H](CC(=O)O)C(=O)O)C(=O)O)C(=O)O`, which IC50 [4] is on record?
Its IC50 is 7000 nM.

Which Ki [5] does the source give for `CCN(CCCC[C@@H](C[C@@H](OC)c1ccc(F)cc1)C(=O)NO)c1ccc(F)cc1` here?
The Ki was 0.27 nM.

With `CNC(=O)[C@@H](NC(=O)C(CCCc1ccccc1)[C@H](C)N(O)C=O)C(C)(C)C` (some centres not stated) as the compound, how does the IC50 [6] read?
The IC50 was 541 nM.

And the IC50 [7]?
Its IC50 is 5.3 nM.

Which Ki [5] does the source give for `CON(C)C(=O)N[C@@H](CCCNC(=N)N)C(=O)N[C@@H](CC(C)C)C(=O)N[C@H](C(=O)N[C@@H](CCCNC(=N)N)C(=O)O)C(C)C` ({N(Me)OMe-CO}-RLVR-OH) here?
Its Ki is 6.4 nM.

For `CCCCCC[C@H]([C@H](C)O)n1cnc2c(N)ncnc21` [(+)-EHNA], which Ki [8] is on record?
The Ki was 1 nM.

Which IC50 [9] does the source give for `O=C(O[C@@H]1Cc2c(O)cc(O)cc2O[C@@H]1c1cc(O)c(O)c(O)c1)c1cc(O)c(O)c(O)c1` [EPIGALOCATECHIN GALLATE] here?
Its IC50 is 97 nM.

Which Ki [5] does the source give for `NC[C@@H]1O[C@H](O[C@H]2[C@@H](O)[C@H](O[C@@H]3[C@@H](O)[C@H](N)C[C@H](N)[C@H]3O[C@H]3O[C@H](CN)[C@@H](O)[C@H](O)[C@H]3N)O[C@@H]2CO)[C@H](N)[C@@H](O)[C@@H]1O` [FRAMYCETIN] here?
Its Ki is 7 nM.
